In patent US7015215B2, “Pyrrolo[2,1-c][1,4] benzodiazepines compounds and process thereof” (Council of Scientific and Industrial Research, priority 2003, dated 2006):

Assays:
[1] = system: HS578T; assay: NCI SRB cytotoxicity, Breast HS578T; type: cell-based, human; conditions: 48 h
Method: (§1) Biological Activity: In vitro biological activity studies were carried out at National Cancer Institute (U.S.A.).
(§2) For each compound, dose response curves for each cell line were measured at a minimum of five concentrations at 10 fold dilutions. A protocol of 48 h continuous drug exposure was used, and a sulforhodamine B (SRB) protein assay was used to estimate cell viability or growth. The concentration causing 50% cell growth inhibition (GI50), total cell growth inhibition (TGI, 0% growth) and 50% cell death (LC50, −50% growth) compared with the control was calculated.

[2] = system: human tumor cell lines; assay: NCI in vitro cytotoxicity SRB assay, mean graph midpoints over the panel; type: cell-based; conditions: 48 h continuous exposure
Method: as §1, §2

[3] = system: T-47D; assay: NCI SRB cytotoxicity, Breast T-47D; type: cell-based, human; conditions: 48 h
Method: as §1, §2

[4] = system: CAKI-1; assay: NCI SRB cytotoxicity, Renal CAKI-1; type: cell-based, human; conditions: CAKI-1, Renal, 48 h
Method: as §1, §2

[5] = system: MDA-MB-231/ATCC; assay: NCI SRB cytotoxicity, Breast MDA-MB-231/ATCC; type: cell-based, human; conditions: 48 h
Method: as §1, §2

[6] = system: HCC-2998; assay: NCI SRB cytotoxicity, Colon HCC-2998; type: cell-based, human; conditions: HCC-2998, Colon, 48 h
Method: as §1, §2

[7] = system: SF-295; assay: NCI SRB cytotoxicity, CNS SF-295; type: cell-based, human; conditions: SF-295, CNS, 48 h
Method: as §1, §2

[8] = system: IGROVI; assay: NCI SRB cytotoxicity, Ovarian IGROVI; type: cell-based, human; conditions: 48 h
[9] = system: NCI-H322; assay: NCI SRB cytotoxicity, Non-small-cell lung NCI-H322; type: cell-based, human; conditions: 48 h
Method: as §1, §2

[10] = system: HCT-116; assay: NCI SRB cytotoxicity, Colon HCT-116; type: cell-based, human; conditions: HCT-116, Colon, 48 h
Method: as §1, §2

[11] = system: HCT-15; assay: NCI SRB cytotoxicity, Colon HCT-15; type: cell-based, human; conditions: HCT-15, Colon, 48 h
Method: as §1, §2

[12] = system: SW-620; assay: NCI SRB cytotoxicity, Colon SW-620; type: cell-based, human; conditions: SW-620, Colon, 48 h
Method: as §1, §2

[13] = system: HOP-62; assay: NCI SRB cytotoxicity, Non-small-cell lung HOP-62; type: cell-based, human; conditions: HOP-62, Non-small-cell lung, 48 h
Method: as §1, §2

[14] = system: NCI-H226; assay: NCI SRB cytotoxicity, Non-small-cell lung NCI-H226; type: cell-based, human; conditions: 48 h
Method: as §1, §2

[15] = system: BT-549; assay: NCI SRB cytotoxicity, Breast BT-549; type: cell-based, human; conditions: BT-549, Breast, 48 h
Method: as §1, §2

[16] = system: DU-145; assay: NCI SRB cytotoxicity, Prostate DU-145; type: cell-based, human; conditions: DU-145, Prostate, 48 h
Method: as §2

[17] = system: NCI-H23; assay: NCI SRB cytotoxicity, Non-small-cell lung NCI-H23; type: cell-based, human; conditions: 48 h
Method: as §1, §2

[18] = system: K-62; assay: NCI SRB cytotoxicity, Leukemia K-62; type: cell-based, human; conditions: K-62, Leukemia, 48 h
Method: as §1, §2

[19] = system: HOP-92; assay: NCI SRB cytotoxicity, Non-small-cell lung HOP-92; type: cell-based, human; conditions: HOP-92, Non-small-cell lung, 48 h
Method: as §1, §2

[20] = system: PC-3; assay: NCI SRB cytotoxicity, Prostate PC-3; type: cell-based, human; conditions: PC-3, Prostate, 48 h
Method: as §2

[21] = system: UACC-62; assay: NCI SRB cytotoxicity, Melanoma UACC-62; type: cell-based, human; conditions: UACC-62, Melanoma, 48 h
Method: as §1, §2

[22] = system: NCI/ADR-RES; assay: NCI SRB cytotoxicity, Breast NCI/ADR-RES; type: cell-based, human; conditions: 48 h
Method: as §1, §2

[23] = system: UO-31; assay: NCI SRB cytotoxicity, Renal UO-31; type: cell-based, human; conditions: UO-31, Renal, 48 h
Method: as §2

[24] = system: MCF7; assay: NCI SRB cytotoxicity, Breast MCF7; type: cell-based, human; conditions: 48 h
Method: as §1, §2

[25] = system: RPMI-8226; assay: NCI SRB cytotoxicity, Leukemia RPMI-8226; type: cell-based, human; conditions: RPMI-8226, Leukemia, 48 h
Method: as §2

[26] = system: COLO 205; assay: NCI SRB cytotoxicity, Colon COLO 205; type: cell-based, human; conditions: COLO 205, Colon, 48 h
Method: as §1, §2

[27] = system: U251; assay: NCI SRB cytotoxicity, CNS U251; type: cell-based, human; conditions: 48 h
Method: as §1, §2

[28] = system: SK-MEL-5; assay: NCI SRB cytotoxicity, Melanoma SK-MEL-5; type: cell-based, human; conditions: SK-MEL-5, Melanoma, 48 h
Method: as §1, §2

[29] = system: UACC-257; assay: NCI SRB cytotoxicity, Melanoma UACC-257; type: cell-based, human; conditions: UACC-257, Melanoma, 48 h
Method: as §1, §2

[30] = system: ACHN; assay: NCI SRB cytotoxicity, Renal ACHN; type: cell-based, human; conditions: 48 h
Method: as §1, §2

[31] = system: HT-29; assay: NCI SRB cytotoxicity, Colon HT-29; type: cell-based, human; conditions: HT-29, Colon, 48 h
Method: as §1, §2

[32] = system: SN12C; assay: NCI SRB cytotoxicity, Renal SN12C; type: cell-based, human; conditions: 48 h
Method: as §1, §2

[33] = system: SNB-19; assay: NCI SRB cytotoxicity, CNS SNB-19; type: cell-based, human; conditions: SNB-19, CNS, 48 h
Method: as §1, §2

[34] = system: SK-MEL-28; assay: NCI SRB cytotoxicity, Melanoma SK-MEL-28; type: cell-based, human; conditions: SK-MEL-28, Melanoma, 48 h
Method: as §1, §2

[35] = system: SR; assay: NCI SRB cytotoxicity, Leukemia SR; type: cell-based, human; conditions: 48 h
Method: as §1, §2

[36] = system: KM-12; assay: NCI SRB cytotoxicity, Colon KM-12; type: cell-based, human; conditions: KM-12, Colon, 48 h
Method: as §1, §2

Compound: COc1cc2c(cc1OCCCCCN1CCN(CCCCCOc3cc4c(cc3OC)C(=O)N3CCC[C@H]3C=N4)CC1)N=C[C@@H]1CCCN1C2=O [Compound VId]
- Log GI 50 [1]: −5.12 mol/L
- Log LC 50 [1]: −4.00 mol/L
- Log10 GI50 mean graph midpoint (MG_MID) [2]: −5.14
- Log10 LC50 mean graph midpoint (MG_MID) [2]: −4.04
- Log10 TGI mean graph midpoint (MG_MID) [2]: −4.26
- Log GI 50 [3]: −5.00 mol/L
- Log LC 50 [3]: −4.00 mol/L
- Log GI 50 [4]: −5.77 mol/L
- Log LC 50 [4]: −4.00 mol/L
- Log GI 50 [5]: −5.42 mol/L
- Log LC 50 [5]: −4.00 mol/L
- Log GI 50 [6]: −5.69 mol/L
- Log LC 50 [6]: −4.29 mol/L
- Log GI 50 [7]: −5.30 mol/L
- Log LC 50 [7]: −4.00 mol/L
- Log GI 50 [8]: −5.13 mol/L
- Log LC 50 [8]: −4.00 mol/L
- Log GI 50 [9]: −4.65 mol/L
- Log LC 50 [9]: −4.00 mol/L
- Log GI 50 [10]: −4.00 mol/L
- Log LC 50 [10]: −4.00 mol/L
- Log GI 50 [11]: −4.25 mol/L
- Log LC 50 [11]: −4.00 mol/L
- Log GI 50 [12]: −5.49 mol/L
- Log LC 50 [12]: −4.00 mol/L
- Log GI 50 [13]: −4.00 mol/L
- Log LC 50 [13]: −4.00 mol/L
- Log GI 50 [14]: −5.30 mol/L
- Log LC 50 [14]: −4.00 mol/L
- Log GI 50 [15]: −5.31 mol/L
- Log LC 50 [15]: −4.00 mol/L
- Log GI 50 [16]: −5.37 mol/L
- Log LC 50 [16]: −4.00 mol/L
- Log GI 50 [17]: −5.18 mol/L
- Log LC 50 [17]: −4.00 mol/L
- Log GI 50 [18]: −5.46 mol/L
- Log LC 50 [18]: −4.20 mol/L
- Log GI 50 [19]: −5.46 mol/L
- Log LC 50 [19]: −4.00 mol/L
- Log GI 50 [20]: −5.41 mol/L
- Log LC 50 [20]: −4.00 mol/L
- Log GI 50 [21]: −5.64 mol/L
- Log LC 50 [21]: −4.00 mol/L
- Log GI 50 [22]: −4.00 mol/L
- Log LC 50 [22]: −4.00 mol/L
- Log GI 50 [23]: −4.00 mol/L
- Log LC 50 [23]: −4.00 mol/L
- Log GI 50 [24]: −5.69 mol/L
- Log LC 50 [24]: −4.00 mol/L
- Log GI 50 [25]: −5.59 mol/L
- Log LC 50 [25]: −4.54 mol/L
- Log GI 50 [26]: −5.49 mol/L
- Log LC 50 [26]: −4.00 mol/L
- Log GI 50 [27]: −5.47 mol/L
- Log LC 50 [27]: −4.00 mol/L
- Log GI 50 [28]: −5.48 mol/L
- Log LC 50 [28]: −4.00 mol/L
- Log GI 50 [29]: −4.75 mol/L
- Log LC 50 [29]: −4.00 mol/L
- Log GI 50 [30]: −4.63 mol/L
- Log LC 50 [30]: −4.00 mol/L
- Log GI 50 [31]: −5.02 mol/L
- Log LC 50 [31]: −4.00 mol/L
- Log GI 50 [32]: −5.66 mol/L
- Log LC 50 [32]: −4.00 mol/L
- Log GI 50 [33]: −4.00 mol/L
- Log LC 50 [33]: −4.00 mol/L
- Log GI 50 [34]: −4.71 mol/L
- Log LC 50 [34]: −4.00 mol/L
- Log GI 50 [35]: −5.37 mol/L
- Log LC 50 [35]: −4.00 mol/L
- Log GI 50 [36]: −5.25 mol/L
- Log LC 50 [36]: −4.00 mol/L
